Test results reported in PubChem BioAssay AID1845209 (Molecular Pharmacology Branch, DTP, NCI, 2023).

Test system: NCI-H211 tumor spheroids, viability percent test/control
Test: Anticancer human tumor NCI-H211 cell line growth inhibition;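 further: spheroids exposed to agents for seven days before readout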
Details: spheroids with HUVEC and MSC; for IC50: curve of first compound; for viability, T/C: stronger effect = lower value
Description: Multicellular complex tumor spheroid response to DNA repair inhibitors in combination with DNA-damaging drugs
This study explores the anticancer activities of DNA-damaging drugs and inhibitors of DNA damage repair, both as single agents and in combinations. Complex tumor spheroids comprised of malignant cells, endothelial cells and mesenchymal stem cells served as an in vitro model for human solid tumors. This model system incorporates physiologically relevant features and patient-derived or established malignant cell lines with clinically relevant genetic alterations from many tumor types. Twenty-six patient-derived or established malignant cell lines were evaluated representing sarcoma, melanoma, small cell lung cancer (SCLC), non-small cell lung cancer (NSCLC), as well as bladder, ovarian and pancreatic cancers. The concentration ranges selected for each drug and investigational agent were based upon clinically achievable concentrations if the clinical Cmax of the agent was known.
Compounds. The drugs and compounds olaparib (NSC753686), talazoparib (NSC767125), berzosertib (NSC777718), elimusertib (NSC800525), nedisertib (NSC802822), VX-984 (NSC792969), AZD-1390 (NSC803789), temozolomide (NSC362856), topotecan (NSC609699), trabectedin (NSC813783), staurosporine (NSC755774), and gemcitabine (NSC613327) were obtained from the National Cancer Institute (NCI) Developmental Therapeutics Program Chemical Repository. The FDA-approved anticancer drug set is available from the Developmental Therapeutics Program at https://dtp.cancer.gov/organization/dscb/obtaining/available_plates.htm. […] The stock solutions were prepared in dimethyl sulfoxide (DMSO, Sigma-Aldrich, St. Louis, MO, cat. D2650) at 400-fold the tested concentration and stored at -70 degrees C. Prior to their use, the stock solutions were diluted in fresh medium and the final DMSO concentration in the assay was 0.25% (v/v). All drugs and investigational agents were tested over a range starting from a high concentration at or near the clinical Cmax and decreasing in half-log increments. If the clinical Cmax for an agent had not been determined, the highest concentration tested was 10 microM.
Cell Lines. The patient-derived cancer cell (PDC) lines: 156681-154-R-J1-PDC, 283228-195-R-J1-PDC, 287954-098-R-J1-PDC, 292921-168-R-J2-PDC, 349418-098-R-PDC, 425362-245-T-J1-PDC, 556581-035-R-J1-PDC, and BL0293-F563-PDC were received from the NCI Patient-Derived Models Repository (PDMR, https://pdmr.cancer.gov). The established cell lines HS-SY-2 (RRID:CVCL_8719), MPNST, and SYO-1 (RRID:CVCL_7146) were obtained from the Sloan Kettering Institute. The alveolar soft parts sarcoma cell line ASPS-1 (RRID:CVCL_S738) was established at the NCI and grown from internal seed stocks. The following established cell lines were purchased from the American Type Culture Collection (ATCC, Manassas, VA): G-401 (ATCC, cat. CRL-1441, RRID:CVCL_0270), SW982 (ATCC, cat. HTB-93, RRID:CVCL_1734), VA-ES-BJ (ATCC, cat. CRL-2138, RRID:CVCL_1785), NCI-H719 (ATCC, cat. CRL-5837, RRID:CVCL_1582), NCI-H196 (ATCC, cat. CRL-5823, RRID:CVCL_1509), NCI-H841 (ATCC, cat. CRL-5845, RRID:CVCL_1595), NCI-H1618 (ATCC, cat. CRL-5879, RRID:CVCL_1480), NCI-H1876 (ATCC, cat. CRL-5902, RRID:CVCL_1503), DMS 114 (ATCC, cat. CRL-2066; RRID:CVCL_1174), NCI-H211 (ATCC, cat. CRL-5824; RRID:CVCL_1529), and SW 1271 (ATCC, cat. CRL-2177, RRID:CVCL_1716). The small cell lung cancer cell line COR-L88 was purchased from Sigma-Aldrich (cat. 92031917-1VL, RRID:CVCL_1141). The non-small cell lung cancer cell lines NCI-H226 (RRID:CVCL_1544) and NCI-H322M (RRID:CVCL_1557) were established at the NCI and grown from internal seed stocks. Pooled donor human umbilical vein endothelial cells (HUVEC, Lonza, cat. CC-2519) and human mesenchymal stem cells (hMSC, Lonza, cat. PT-2501) were purchased from Lonza (Walkersville, MD).
Cell Culture. All cells were maintained in an incubator at 37 degrees C and 5% CO2 with 95% humidity. […]

`Cc1cc(C)c(CNC(=O)c2cc(-c3ccc(CN4CCOCC4)cc3)cc3c2cnn3C2CCCC2)c(=O)[nH]1` + CC[C@@]1(O)C(=O)OCc2c1cc1n(c2=O)Cc2cc3c(CN(C)C)c(O)ccc3nc2-1 was tested. Which IC50 (second compound 0.003 µM) did it give?
The IC50 was 1890 nM.

What about the IC50 (second compound 0.00949 µM) of the same molecule?
The IC50 was < 31.6 nM.

What about the IC50 (second compound 0.03 µM) of the same molecule?
The IC50 was < 31.6 nM.

What about the IC50 (second compound 0.0949 µM) of the same molecule?
The IC50 was < 31.6 nM.

What about the IC50 (second compound 0.3 µM) of the same molecule?
Its IC50 is < 31.6 nM.

What about the viability, T/C (second compound 0.003 µM, first compound 0.0316 µM) of the same molecule?
Its viability, T/C is 83.3%.

And the viability, T/C (second compound 0.003 µM, first compound 0.1 µM)?
The viability, T/C was 78.6%.

And the viability, T/C (second compound 0.003 µM, first compound 0.316 µM)?
The viability, T/C was 74.2%.

And the viability, T/C (second compound 0.003 µM, first compound 1 µM)?
The viability, T/C was 58.4%.

And the viability, T/C (second compound 0.003 µM, first compound 3.16 µM)?
Its viability, T/C is 42.8%.

And the viability, T/C (second compound 0.003 µM, first compound 10 µM)?
The viability, T/C was 24.6%.

And the viability, T/C (second compound 0.00949 µM, first compound 0.0316 µM)?
Its viability, T/C is 10.6%.

And the viability, T/C (second compound 0.00949 µM, first compound 0.1 µM)?
Its viability, T/C is 8.26%.

And the viability, T/C (second compound 0.00949 µM, first compound 0.316 µM)?
The viability, T/C was 5.43%.

And the viability, T/C (second compound 0.00949 µM, first compound 1 µM)?
Its viability, T/C is 3.96%.

And the viability, T/C (second compound 0.00949 µM, first compound 3.16 µM)?
The viability, T/C was 2.11%.

And the viability, T/C (second compound 0.00949 µM, first compound 10 µM)?
The viability, T/C was 1.31%.

And the viability, T/C (second compound 0.03 µM, first compound 0.0316 µM)?
The viability, T/C was 0.94%.

And the viability, T/C (second compound 0.03 µM, first compound 0.1 µM)?
The viability, T/C was 1.14%.

And the viability, T/C (second compound 0.03 µM, first compound 0.316 µM)?
The viability, T/C was 1.13%.

And the viability, T/C (second compound 0.03 µM, first compound 1 µM)?
Its viability, T/C is 0.98%.

And the viability, T/C (second compound 0.03 µM, first compound 3.16 µM)?
The viability, T/C was 1.02%.

What about the viability, T/C (second compound 0.03 µM, first compound 10 µM) of the same molecule?
Its viability, T/C is 0.92%.

And the viability, T/C (second compound 0.0949 µM, first compound 0.0316 µM)?
The viability, T/C was 1.01%.

And the viability, T/C (second compound 0.0949 µM, first compound 0.1 µM)?
The viability, T/C was 1.06%.

What about the viability, T/C (second compound 0.0949 µM, first compound 0.316 µM) of the same molecule?
The viability, T/C was 0.94%.

What about the viability, T/C (second compound 0.0949 µM, first compound 1 µM) of the same molecule?
The viability, T/C was 1.17%.

And the viability, T/C (second compound 0.0949 µM, first compound 3.16 µM)?
The viability, T/C was 1.46%.

And the viability, T/C (second compound 0.0949 µM, first compound 10 µM)?
Its viability, T/C is 1.47%.

What about the viability, T/C (second compound 0.3 µM, first compound 0.0316 µM) of the same molecule?
Its viability, T/C is 1.21%.

And the viability, T/C (second compound 0.3 µM, first compound 0.1 µM)?
The viability, T/C was 1.42%.

What about the viability, T/C (second compound 0.3 µM, first compound 0.316 µM) of the same molecule?
The viability, T/C was 1.39%.

And the viability, T/C (second compound 0.3 µM, first compound 1 µM)?
Its viability, T/C is 1.4%.

What about the viability, T/C (second compound 0.3 µM, first compound 3.16 µM) of the same molecule?
Its viability, T/C is 1.35%.

What about the viability, T/C (second compound 0.3 µM, first compound 10 µM) of the same molecule?
The viability, T/C was 1.52%.

Which IC50 (second compound 0.003 µM) does the source give for `Cc1sc2c(c1C)C(c1ccc(Cl)cc1)=NC(CC(=O)Nc1ccc(O)cc1)c1nnc(C)n1-2` (stereo not given) + CC[C@@]1(O)C(=O)OCc2c1cc1n(c2=O)Cc2cc3c(CN(C)C)c(O)ccc3nc2-1 here?
Its IC50 is < 9.49 nM.

What about the IC50 (second compound 0.00949 µM) of the same molecule?
The IC50 was < 9.49 nM.

What about the IC50 (second compound 0.03 µM) of the same molecule?
Its IC50 is < 9.49 nM.

What about the IC50 (second compound 0.0949 µM) of the same molecule?
Its IC50 is < 9.49 nM.

What about the IC50 (second compound 0.3 µM) of the same molecule?
Its IC50 is < 9.49 nM.

What about the viability, T/C (second compound 0.003 µM, first compound 0.00949 µM) of the same molecule?
The viability, T/C was 30.2%.

What about the viability, T/C (second compound 0.003 µM, first compound 0.03 µM) of the same molecule?
Its viability, T/C is 3.07%.

And the viability, T/C (second compound 0.003 µM, first compound 0.0949 µM)?
The viability, T/C was 0.77%.

And the viability, T/C (second compound 0.003 µM, first compound 0.3 µM)?
The viability, T/C was 0.53%.

And the viability, T/C (second compound 0.003 µM, first compound 0.949 µM)?
The viability, T/C was 0.42%.

And the viability, T/C (second compound 0.003 µM, first compound 3 µM)?
Its viability, T/C is 0.44%.

And the viability, T/C (second compound 0.00949 µM, first compound 0.00949 µM)?
The viability, T/C was 3.11%.

What about the viability, T/C (second compound 0.00949 µM, first compound 0.03 µM) of the same molecule?
The viability, T/C was 0.89%.

And the viability, T/C (second compound 0.00949 µM, first compound 0.0949 µM)?
Its viability, T/C is 0.89%.

And the viability, T/C (second compound 0.00949 µM, first compound 0.3 µM)?
The viability, T/C was 0.57%.

What about the viability, T/C (second compound 0.00949 µM, first compound 0.949 µM) of the same molecule?
Its viability, T/C is 0.46%.

And the viability, T/C (second compound 0.00949 µM, first compound 3 µM)?
The viability, T/C was 0.57%.

And the viability, T/C (second compound 0.03 µM, first compound 0.00949 µM)?
The viability, T/C was 0.97%.

What about the viability, T/C (second compound 0.03 µM, first compound 0.03 µM) of the same molecule?
The viability, T/C was 0.72%.

What about the viability, T/C (second compound 0.03 µM, first compound 0.0949 µM) of the same molecule?
Its viability, T/C is 0.81%.

What about the viability, T/C (second compound 0.03 µM, first compound 0.3 µM) of the same molecule?
Its viability, T/C is 0.54%.

And the viability, T/C (second compound 0.03 µM, first compound 0.949 µM)?
The viability, T/C was 0.57%.

What about the viability, T/C (second compound 0.03 µM, first compound 3 µM) of the same molecule?
The viability, T/C was 0.55%.

What about the viability, T/C (second compound 0.0949 µM, first compound 0.00949 µM) of the same molecule?
Its viability, T/C is 0.76%.

What about the viability, T/C (second compound 0.0949 µM, first compound 0.03 µM) of the same molecule?
The viability, T/C was 0.8%.

What about the viability, T/C (second compound 0.0949 µM, first compound 0.0949 µM) of the same molecule?
Its viability, T/C is 0.73%.

And the viability, T/C (second compound 0.0949 µM, first compound 0.3 µM)?
The viability, T/C was 0.79%.

And the viability, T/C (second compound 0.0949 µM, first compound 0.949 µM)?
Its viability, T/C is 0.59%.

What about the viability, T/C (second compound 0.0949 µM, first compound 3 µM) of the same molecule?
The viability, T/C was 0.6%.

And the viability, T/C (second compound 0.3 µM, first compound 0.00949 µM)?
Its viability, T/C is 0.94%.

What about the viability, T/C (second compound 0.3 µM, first compound 0.03 µM) of the same molecule?
The viability, T/C was 0.9%.

What about the viability, T/C (second compound 0.3 µM, first compound 0.0949 µM) of the same molecule?
The viability, T/C was 0.83%.

And the viability, T/C (second compound 0.3 µM, first compound 0.3 µM)?
Its viability, T/C is 0.85%.

What about the viability, T/C (second compound 0.3 µM, first compound 0.949 µM) of the same molecule?
The viability, T/C was 0.54%.

And the viability, T/C (second compound 0.3 µM, first compound 3 µM)?
Its viability, T/C is 0.51%.
